Results as given in ChEMBL document CHEMBL1151407, “Bisbenzylisoquinoline Alkaloids” (1983).

Experiments:
Assay type in all cases: functional
CCRF S-180 = assay: In vivo antitumor activity against mouse S180 cells xenografted in mouse assessed as suppression of tumor growth at 70 mg/kg
[1] = system: Lewis lung carcinoma cell line; assay: In vivo antitumor activity against mouse Lewis lung carcinoma cells xenografted in mouse assessed as suppression of tumor growth at 100 mg/kg
Ehrlich [2] = assay: In vivo antitumor activity against Ehrlich ascite carcinoma in mouse
Ehrlich [3] = assay: In vivo antitumor activity against mouse Ehrlich ascite carcinoma cells xenografted in mouse assessed as suppression of tumor growth at 70 mg/kg
[4] = In vivo antitumor activity against ascites carcinoma in mouse

COc1ccc2cc1Oc1ccc(cc1)C[C@H]1c3cc(OC)c(OC)c(c3CCN1C)Oc1c(OC)c(OC)cc3c1[C@H](C2)N(C)CC3 [THALIDASINE]
Activity (CCRF S-180): 20%
Activity [1]: 58%
LD50 (Ehrlich [2]): 520 mg/kg
Activity (Ehrlich [3]): 50%
LD50 [4]: 300 mg/kg
